# Source: patent US20230219946A1, “PYRIMIDIN-4(3H)-ONE HETEROCYCLIC COMPOUND, PREPARATION METHOD THEREOF, AND PHARMACEUTICAL USE THEREOF” (Beijing Innocare Pharma Tech Co., Ltd., priority 2020, published 2023)
# pIC50: −log10 of the molar value. Counter-ions that a name gives are not always drawn.
# Assays:
# [1] = test system: human non-small cell lung cancer cell line NCI-H358; assay: NCI-H358 cell proliferation inhibition (luminescent cell viability assay, CTG); type: cell-based; conditions: 120 h, NCI-H358 cells, 5 days, CellTiter-Glo
# Protocol: Determination of NCI-H358 cell proliferation inhibition
# The effect of the compound of the present invention on proliferation of human non-small cell lung cancer cell line NCI-H358 is evaluated by luminescent cell viability assay.
# (§1) The experimental method is outlined as follows:
# The compound was dissolved in DMSO (Sigma, Cat. No. D5879) and diluted to 5 mM. The resulting solution was serially diluted 4-fold with DMSO to a minimum concentration of […], and each concentration point was diluted 50-fold with RPMI 1640 Medium (Thermo Fisher Scientific, Cat. No. 11995073). When the IC50 value of the compound was low, the initial concentration of the compound was further reduced.
# NCI-H358 cells (ATCC, Cat. No. CRL-5807) were cultured in RPMI 1640 Complete Medium [RPMI 1640 Medium was supplemented with 10% FBS (GBICO, Cat. No. 10099-141) and 100 units/mL Penicillin-Streptomycin (Thermo Fisher Scientific, Cat. No. 15140122)]. The cells (15,000 cells/mL) were seeded in 90 μL of Complete Medium on a 96-well plate. After culturing overnight, 10 μL of compound solution was added to each well and cultured at 37° C. in a 5% CO2 incubator for 5 days. According to the instruction from the CellTilter-Glo (CTG) kit (Promega, Cat. No. G7572), the cell culture plate was removed from incubator and equilibrated to room temperature. The cells were lysed fully with 50 μL of CTG reagent and placed at room temperature for 10 min. A luminescence signal was read by the microplate reader (EnVision, Perkin Elmer). […] An inhibition curve of the compound was plotted by XLfit software and the inhibitory IC50 was calculated.
# [2] = biological target: T1, Recombinant human SHP2 full-length protein (Homo sapiens, UniProt Q06124); assay: SHP2 activity inhibition measurement (fluorescence detection, surrogate substrate DiFMUP); type: biochemical; conditions: recombinant human SHP2 full-length protein activated with diphosphopeptide
# T1 construct: Recombinant human SHP2 full-length protein
# T1 sequence (Q06124 1-593): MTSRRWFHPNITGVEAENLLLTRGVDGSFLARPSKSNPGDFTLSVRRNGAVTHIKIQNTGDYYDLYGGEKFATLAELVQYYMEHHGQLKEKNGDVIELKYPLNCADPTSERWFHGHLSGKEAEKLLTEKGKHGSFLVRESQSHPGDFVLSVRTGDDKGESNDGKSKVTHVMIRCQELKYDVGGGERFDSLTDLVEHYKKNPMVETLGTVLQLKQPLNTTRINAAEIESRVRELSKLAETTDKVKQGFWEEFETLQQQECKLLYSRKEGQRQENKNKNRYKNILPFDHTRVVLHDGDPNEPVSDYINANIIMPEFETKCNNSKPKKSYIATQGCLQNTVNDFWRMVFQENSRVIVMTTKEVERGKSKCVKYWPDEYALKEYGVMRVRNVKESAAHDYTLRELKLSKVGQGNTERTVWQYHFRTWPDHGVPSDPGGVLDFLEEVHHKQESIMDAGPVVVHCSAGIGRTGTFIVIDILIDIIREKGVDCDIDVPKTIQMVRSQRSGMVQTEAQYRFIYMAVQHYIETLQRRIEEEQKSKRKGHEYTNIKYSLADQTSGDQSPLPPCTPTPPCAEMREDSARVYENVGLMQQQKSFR
# Protocol: SHP2 activity inhibition measurement
# The effect of the compound of the present invention on SHP2 activity is evaluated by rapid fluorescence detection method using the surrogate substrate DiFMUP.
# as §1
# Recombinant human SHP2 full-length protein was expressed and purified by the protein purification and identification platform of Tsinghua University; diphosphopeptide (H2N-LN(pY)IDLDLV-(dPEG8)LST(pY)ASINFQK-amide) was synthesized by Nanjing GenScript Biotechnology Co., Ltd.; surrogate substrate DiFMUP was purchased from Thermo Fisher Scientific (Cat. No. D6567); reaction buffer contained the following components: 60 mM HEPES (pH 7.2), 75 mM NaCl, 75 mM KCl, 1 mM EDTA, 0.05% TWEEN 20, and 5 mM DTT.
# The compound was dissolved in DMSO (Sigma, Cat. No. D5879) and diluted to 100 μM. The resulting solution was serially diluted 4-fold with DMSO to a minimum concentration of 6.1 nM, and each concentration point was diluted 25-fold with the reaction buffer.
# 10 μL of compound solution and 10 μL of 0.25 nM SHP2 protein solution were added to a 384-well microplate (Corning, Cat. No. 3575), mixed well, and incubated at room temperature for 30 min. 10 μL of 0.5 μM diphosphopeptide (dissolved in the reaction buffer) was added, mixed well, and incubated at room temperature for 30 to 60 min. Subsequently, 10 μL of 60 μM DiFMUP solution (dissolved in the reaction buffer) was added, mixed well, and let stand at room temperature. After 30 min, fluorescence signals were measured at 340 nm (excitation wavelength)/450 nm (emission wavelength) using a microplate reader (EnSpire, Perkin Elmer). The fluorescence intensity value was positively correlated with the degree of dephosphorylation of the substrate, thereby reflecting the catalytic activity of SHP2. […] An inhibition curve of the compound was plotted by XLfit software and the inhibitory IC50 was calculated.
Compound,pIC50 [1],pIC50 [2]
"Cn1c(N2CCC3(CCC[C@H]3N)CC2)ncc(Sc2ccnc3[nH]ccc23)c1=O [Compound 1, (R)-5-((1H-pyrrolo[2,3-b]pyridin-4-yl)thio)-2-(1-amino-8-azaspiro[4.5]decan-8-yl)-3-methylpyrimidin-4(3H)-one hydrochloride]",6.51,7.64
"C[C@@H]1OCC2(CCN(c3nc(N)c(Sc4ccn5nccc5c4Cl)c(=O)n3C)CC2)[C@@H]1N [Compound 15, 6-Amino-2-((3S,4S)-4-amino-3-methyl-2-oxa-8-azaspiro[4.5]decan-8-yl)-5-((4-chloropyrazolo[1,5-a]pyridine-5-yl)thio)-3-methylpyrimidin-4(3H)-one formate]",6.47,8.57
"Cn1cc2c(Cl)c(Sc3cnc(N4CCC5(CC4)COC[C@H]5N)n(C)c3=O)ccc2n1 [Compound 10, (S)-2-(4-amino-2-oxa-8-azaspiro[4.5]decan-8-yl)-5-((4-chloro-2-methyl-2H-indazole-5-yl)thio)-3-methylpyrimidin-4(3H)-one]",5.75,7.44
"Cn1c(N2CCC3(CCC[C@H]3N)CC2)ncc(Sc2cccn3nccc23)c1=O [Compound 4, (R)-2-(1-amino-8-azaspiro[4.5]decan-8-yl)-3-methyl-5-(pyrazolo[1,5-a]pyridin-4-ylthio)pyrimidin-4(3H)-one formate]",5.63,6.90
"Cn1c(N2CCC3(CCC[C@H]3N)CC2)nc(N)c(Sc2cccc3[nH]ncc23)c1=O [Compound 13, (R)-5-((1H-indazole-4-yl)thio)-6-amino-2-(1-amino-8-azaspiro[4.5]decan-8-yl)-3-m ethylpyrimidin-4(3H)-one formate]",,8.06
"Cn1c(N2CCC3(CCC[C@H]3N)CC2)ncc(Sc2ccn3nccc3c2)c1=O [Compound 5, (R)-2-(1-amino-8-azaspiro[4.5]decan-8-yl)-3-methyl-5-(pyrazolo[1,5-a]pyridin-5-ylthio)pyrimidin-4(3H)-one hydrochloride]",,6.10
"Cn1c(N2CCC3(CCC[C@H]3N)CC2)ncc(Sc2cccc3[nH]ncc23)c1=O [Compound 3, (R)-5-((1H-indazole-4-yl)thio)-2-(1-amino-8-azaspiro[4.5]decan-8-yl)-3-methylpyrimidin-4(3H)-one hydrochloride]",6.36,7.70
"Cn1c(N2CCC3(CCC[C@H]3N)CC2)ncc(Sc2ccc3[nH]ncc3c2)c1=O [Compound 6, (R)-5-((1H-indazole-5-yl)thio)-2-(1-amino-8-azaspiro[4.5]decan-8-yl)-3-methylpyrimidin-4(3H)-one hydrochloride]",,6.06
"[2H]C([2H])([2H])n1c(N2CCC3(CC2)CO[C@@H](C)[C@H]3N)ncc(Sc2ccc3nn(C)cc3c2Cl)c1=O [Compound 19, 2-((3S,4S)-4-amino-3-methyl-2-oxa-8-azaspiro[4.5]decan-8-yl)-5-((4-chloro-2-methyl-2H-indazole-5-yl)thio)-3-(methyl-d3)pyrimidin-4(3H)-one]",6.65,7.96
"C[C@@H]1OCC2(CCN(c3ncc(Sc4ccc5nn(C)cc5c4Cl)c(=O)n3C)CC2)[C@@H]1N [Compound 11, 2-((3S,4S)-4-amino-3-methyl-2-oxa-8-azaspiro[4.5]decan-8-yl)-5-((4-chloro-2-methyl-2H-indazole-5-yl)thio)-3-methylpyrimidin-4(3H)-one formate]",6.78,8.40
"C[C@@H]1OCC2(CCN(c3ncc(Sc4ccn5nccc5c4Cl)c(=O)n3C)CC2)[C@@H]1N [Compound 12, 2-((3S,4S)-4-amino-3-methyl-2-oxa-8-azaspiro[4.5]decan-8-yl)-5-((4-chloropyrazolo[1,5-a]pyridin-5-yl)thio)-3-methylpyrimidin-4(3H)-one formate]",6.58,8.51
"Cn1c(N2CCC3(CCC[C@H]3N)CC2)ncc(Sc2ccnc3c2ccn3C)c1=O [Compound 2, (R)-2-(1-amino-8-azaspiro[4.5]decan-8-yl)-3-methyl-5-((1-methyl-1H-pyrrolo[2,3-b]pyridin-4-yl)thio)pyrimidin-4(3H)-one formate]",6.42,7.70
"Cn1cc2c(Cl)c(Sc3cnc(N4CCC(C)(CN)CC4)n(C)c3=O)ccc2n1 [Compound 16, 2-(4-(Aminomethyl)-4-methylpiperidin-1-yl)-5-((4-chloro-2-methyl-2H-indazole-5-yl)thio)-3-methylpyrimidin-4(3H)-one formate]",,7.25
"C[C@@H]1OCC2(CCN(c3ncc(Sc4ccnc5[nH]ccc45)c(=O)n3C)CC2)[C@@H]1N [Compound 18, 5-((1H-pyrrolo[2,3-b]pyridin-4-yl)thio)-2-((3S,4S)-4-amino-3-methyl-2-oxa-8-azaspiro[4.5]decan-8-yl)-3-methylpyrimidin-4(3H)-one formate]",6.47,8.26
"Cn1c(N2CCC3(CCC[C@H]3N)CC2)ncc(Sc2ccn3nccc3c2Cl)c1=O [Compound 8, (R)-2-(1-amino-8-azaspiro[4.5]decan-8-yl)-5-((4-chloropyrazolo[1,5-a]pyridin-5-yl)thio)-3-methylpyrimidin-4(3H)-one formate]",6.51,8.07
"C[C@@H]1OCC2(CCN(c3nc(N)c(Sc4ccc5nn(C)cc5c4Cl)c(=O)n3C)CC2)[C@@H]1N [Compound 14, 6-Amino-2-((3S,4S)-4-amino-3-methyl-2-oxa-8-azaspiro[4.5]decan-8-yl)-5-((4-chloro-2-methyl-2H-indazole-5-yl)thio)-3-methylpyrimidin-4(3H)-one formate]",6.97,8.60
"C[C@@H]1OCC2(CCN(c3ncc(Sc4ccnc5c4ccn5C)c(=O)n3C)CC2)[C@@H]1N [Compound 17, 2-((3S,4S)-4-amino-3-methyl-2-oxa-8-azaspiro[4.5]decan-8-yl)-3-methyl-5-((1-methyl-1H-pyrrolo[2,3-b]pyridin-4-yl)thio)pyrimidin-4(3H)-one formate]",6.27,7.85
"Cn1nc2ccc(Sc3cnc(N4CCC5(CCC[C@H]5N)CC4)n(C)c3=O)c(Cl)c2c1C#N [Compound 9, (R)-5-((2-(1-amino-8-azaspiro[4.5]decan-8-yl)-1-methyl-6-oxo-1,6-dihydropyrimidin-5-yl)thio)-4-chloro-2-methyl-2H-indazole-3-carbonitrile formate]",5.87,8.06
